# Source: PubChem BioAssay AID248 (DTP/NCI, 2004)
# Where “and” joins values, the source holds several entries; their conditions need not be identical. Equal entries are not always repeated. Toxic doses and inconclusive results are not listed.
# System: L1210 leukemia ip in BDF1 mice, survival T/C
# Test: NCI In Vivo Anticancer Drug Screen. Data for tumor model L1210 Leukemia (intraperitoneal) in B6D2F1 (BDF1) mice
# Details: endpoint: mean survival time, higher = longer survival
# Outline: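 Mice bearing the transplanted tumor received compound or vehicle. Survival of the treated group was divided by that of the vehicle-treated control group to give the ratio.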
# [1] = dose: 100.0 mg/kg/injection, schedule: Q01DX009 (ip), vehicle: saline
# [2] = dose: 200.0 mg/kg/injection, schedule: Q01DX009 (ip), vehicle: saline
# [3] = dose: 25.0 mg/kg/injection, schedule: Q01DX009 (ip), vehicle: Klucel (hydroxypropylcellulose) (HPC)
# [4] = dose: 50.0 mg/kg/injection, schedule: Q04DX002 (ip), vehicle: saline with Tween-80
# [5] = dose: 100.0 mg/kg/injection, schedule: Q04DX002 (ip), vehicle: saline with Tween-80
# [6] = dose: 200.0 mg/kg/injection, schedule: Q04DX002 (ip), vehicle: saline with Tween-80
# [7] = dose: 100.0 mg/kg/injection, schedule: Q01DX009 (ip), vehicle: Klucel (hydroxypropylcellulose) (HPC)
# [8] = dose: 200.0 mg/kg/injection, schedule: Q01DX009 (ip), vehicle: Klucel (hydroxypropylcellulose) (HPC)
# [9] = dose: 100.0 mg/kg/injection, schedule: Q04DX003 (ip), vehicle: Klucel (hydroxypropylcellulose) (HPC)
# [10] = dose: 200.0 mg/kg/injection, schedule: Q04DX003 (ip), vehicle: Klucel (hydroxypropylcellulose) (HPC)
# [11] = dose: 400.0 mg/kg/injection, schedule: Q01DX009 (ip), vehicle: Klucel (hydroxypropylcellulose) (HPC)
# [12] = dose: 400.0 mg/kg/injection, schedule: Q04DX003 (ip), vehicle: Klucel (hydroxypropylcellulose) (HPC)
# [13] = dose: 100.0 mg/kg/injection, schedule: Q04DX003 (ip), vehicle: saline
# [14] = dose: 100.0 mg/kg/injection, schedule: Q01DX001 (ip), vehicle: saline
# [15] = dose: 200.0 mg/kg/injection, schedule: Q01DX001 (ip), vehicle: saline
# [16] = dose: 200.0 mg/kg/injection, schedule: Q01DX009 (ip), vehicle: saline with Tween-80
# [17] = dose: 75.0 mg/kg/injection, schedule: Q01DX001 (ip), vehicle: Klucel (hydroxypropylcellulose) (HPC)
# [18] = dose: 150.0 mg/kg/injection, schedule: Q01DX001 (ip), vehicle: Klucel (hydroxypropylcellulose) (HPC)
# [19] = dose: 300.0 mg/kg/injection, schedule: Q01DX001 (ip), vehicle: Klucel (hydroxypropylcellulose) (HPC)
compound,measurement,setting,value
CCC1CCCCC1(O)CC (stereo not given),T/C,[1],96 % of control
same,T/C,[2],98 % of control
C=C1C(=O)OC2/C=C(\C)CC/C=C(/C=O)C(OC)C(OC(=O)C(C)C)C12 (stereo not given),T/C,"dose: 6.25 mg/kg/injection, schedule: Q01DX009 (ip), vehicle: Klucel (hydroxypropylcellulose) (HPC)",95 % of control
same,T/C,"dose: 12.5 mg/kg/injection, schedule: Q01DX009 (ip), vehicle: Klucel (hydroxypropylcellulose) (HPC)",100 % of control
same,T/C,[3],101 % of control
COC(=O)c1cc(OC)cc(OC)c1C(=O)c1c(OC)c(Cl)c(C)c(Cl)c1OC,T/C,[4],110 % of control
same,T/C,[5],95 % of control
same,T/C,[6],100 % of control
CCOC(=O)C1C2CCC/C(=N\NS(=O)(=O)c3ccc(C)cc3)C21 (stereo not given),T/C,"dose: 100.0 mg/kg/injection, schedule: Q04DX002 (ip), vehicle: Klucel (hydroxypropylcellulose) (HPC)",104 % of control
same,T/C,"dose: 200.0 mg/kg/injection, schedule: Q04DX002 (ip), vehicle: Klucel (hydroxypropylcellulose) (HPC)",100 % of control
same,T/C,"dose: 400.0 mg/kg/injection, schedule: Q04DX002 (ip), vehicle: Klucel (hydroxypropylcellulose) (HPC)",96 % of control
NNC(=O)CCC(N)C(=O)O (stereo not given),T/C,"dose: 10.77 mg/kg/injection, schedule: Q01DX Z (ip), vehicle: carboxymethylcellulose (CMC)",94 % of control
same,T/C,"dose: 21.53 mg/kg/injection, schedule: Q01DX Z (ip), vehicle: carboxymethylcellulose (CMC)",95 % of control
same,T/C,"dose: 43.05 mg/kg/injection, schedule: Q01DX Z (ip), vehicle: carboxymethylcellulose (CMC)",104 % of control
same,T/C,"dose: 86.1 mg/kg/injection, schedule: Q01DX Z (ip), vehicle: carboxymethylcellulose (CMC)",111 % of control and 124 % of control
O=C(O)/C(=C\c1ccccc1[N+](=O)[O-])c1cccc(Cl)c1,T/C,[7],90 % of control
same,T/C,[8],95 % of control
C#CCN(C)/N=N/c1nc[nH]c1C(N)=O,T/C,"dose: 50.0 mg/kg/injection, schedule: Q04DX003 (ip), vehicle: Klucel (hydroxypropylcellulose) (HPC)",104 % of control
same,T/C,[7],157 % of control
same,T/C,[9],109 % of control and 116 % of control
same,T/C,[8],118 % of control
same,T/C,[10],108 % of control
same,T/C,[11],88 % of control
same,T/C,[12],117 % of control
CC(C)=CCC/C(C)=C\CN=C1C=CC(=O)O1,T/C,"dose: 25.0 mg/kg/injection, schedule: Q01DX009 (ip), vehicle: saline + alcohol",97 % of control
same,T/C,"dose: 25.0 mg/kg/injection, schedule: Q04DX003 (ip), vehicle: other",107 % of control
same,T/C,"dose: 50.0 mg/kg/injection, schedule: Q01DX009 (ip), vehicle: saline + alcohol",90 % of control
same,T/C,"dose: 50.0 mg/kg/injection, schedule: Q04DX003 (ip), vehicle: other",107 % of control
same,T/C,"dose: 100.0 mg/kg/injection, schedule: Q04DX003 (ip), vehicle: other",121 % of control
same,T/C,[13],91 % of control
N#CC(c1cccnc1)N1CCOCC1 (stereo not given),T/C,"dose: 25.0 mg/kg/injection, schedule: Q04DX002 (ip), vehicle: saline with Tween-80",103 % of control
same,T/C,[4],100 % of control
same,T/C,[5],96 % of control
FC(F)(F)c1nc(=S)c2cn[nH]c2[nH]1,T/C,"dose: 44.0 mg/kg/injection, schedule: Q01DX Z (ip), vehicle: methylcellulose (MC)",100 % of control
same,T/C,"dose: 66.0 mg/kg/injection, schedule: Q01DX Z (ip), vehicle: methylcellulose (MC)",91 % of control
same,T/C,"dose: 100.0 mg/kg/injection, schedule: Q01DX Z (ip), vehicle: methylcellulose (MC)",95 % of control
NC(c1ccccc1)C(C(=O)O)C(=O)O (stereo not given),T/C,"dose: 75.0 mg/kg/injection, schedule: Q04DX003 (ip), vehicle: saline",95 % of control
same,T/C,"dose: 150.0 mg/kg/injection, schedule: Q04DX003 (ip), vehicle: saline",94 % of control
same,T/C,"dose: 300.0 mg/kg/injection, schedule: Q04DX003 (ip), vehicle: saline",95 % of control
O=C(C[n+]1ccc2ccccc2c1)c1ccc(-c2ccccc2)cc1,T/C,"dose: 25.0 mg/kg/injection, schedule: Q04DX003 (ip), vehicle: saline",98 % of control
same,T/C,"dose: 50.0 mg/kg/injection, schedule: Q04DX003 (ip), vehicle: saline",105 % of control
same,T/C,[14],94 % of control
same,T/C,[13],100 % of control
same,T/C,[15],101 % of control
COC1CCCCC1Br (stereo not given),T/C,[7],104 % of control
same,T/C,[8],98 % of control
same,T/C,[11],98 % of control
COc1ccc(CCNC(=O)NC(C)(C)C)cc1OC,T/C,[5],97 % of control
same,T/C,[6],94 % of control
same,T/C,"dose: 400.0 mg/kg/injection, schedule: Q04DX002 (ip), vehicle: saline with Tween-80",97 % of control
c1ccc(C2=C([P+](c3ccccc3)(c3ccccc3)c3ccccc3)CCO2)cc1,T/C,"dose: 3.0 mg/kg/injection, schedule: Q04DX003 (ip), vehicle: saline",102 % of control
same,T/C,"dose: 3.12 mg/kg/injection, schedule: Q01DX009 (ip), vehicle: saline",117 % of control
same,T/C,"dose: 6.0 mg/kg/injection, schedule: Q01DX001 (ip), vehicle: saline",108 % of control
same,T/C,"dose: 6.0 mg/kg/injection, schedule: Q04DX003 (ip), vehicle: saline",117 % of control
same,T/C,"dose: 6.25 mg/kg/injection, schedule: Q01DX009 (ip), vehicle: saline",109 % of control
same,T/C,"dose: 12.0 mg/kg/injection, schedule: Q01DX001 (ip), vehicle: saline",108 % of control
same,T/C,"dose: 12.0 mg/kg/injection, schedule: Q04DX003 (ip), vehicle: saline",101 % of control and 107 % of control
same,T/C,"dose: 12.5 mg/kg/injection, schedule: Q01DX009 (ip), vehicle: saline",92 % of control
same,T/C,"dose: 25.0 mg/kg/injection, schedule: Q01DX001 (ip), vehicle: saline",102 % of control
O=Nn1c2ccccc2c2ccccc21,T/C,"dose: 100.0 mg/kg/injection, schedule: Q04DX003 (ip), vehicle: gum acacia",92 % of control
same,T/C,"dose: 200.0 mg/kg/injection, schedule: Q04DX003 (ip), vehicle: gum acacia",95 % of control
same,T/C,"dose: 400.0 mg/kg/injection, schedule: Q04DX003 (ip), vehicle: gum acacia",87 % of control
CCCCOCCCNCC(=O)Nc1ccc(S(=O)(=O)c2ccc(NC(=O)CNCCCOCCCC)cc2)cc1,T/C,[14],89 % of control
same,T/C,[15],97 % of control
same,T/C,"dose: 400.0 mg/kg/injection, schedule: Q01DX001 (ip), vehicle: saline",108 % of control
CSc1ccc(NC(=O)Nc2cccc(F)c2)cc1,T/C,"dose: 100.0 mg/kg/injection, schedule: Q01DX009 (ip), vehicle: other",108 % of control
same,T/C,"dose: 200.0 mg/kg/injection, schedule: Q01DX009 (ip), vehicle: other",96 % of control
COC(OC)C1C=CC=CC=C1,T/C,[16],95 % of control
CC(=O)Nc1ccccc1C(=O)O,T/C,"dose: 100.0 mg/kg/injection, schedule: Q01DX009 (ip), vehicle: saline with Tween-80",100 % of control
same,T/C,[16],97 % of control
same,T/C,"dose: 400.0 mg/kg/injection, schedule: Q01DX009 (ip), vehicle: saline with Tween-80",100 % of control
COC1OC(CO)C(O)C1n1cnc2c(SC)ncnc21 (stereo not given),T/C,"dose: 100.0 mg/kg/injection, schedule: Q04DX002 (ip), vehicle: saline",107 % of control
same,T/C,"dose: 200.0 mg/kg/injection, schedule: Q04DX002 (ip), vehicle: saline",104 % of control
CC1(C)N=C(N)N=C(N)N1c1ccc(CC(C(=O)Nc2ccc(S(=O)(=O)F)cc2)c2ccccc2)cc1 (stereo not given),T/C,[17],97 % of control
same,T/C,[18],94 % of control
same,T/C,[19],90 % of control
O=C(O)/C(Cc1cccc(=O)n1Cc1ccccc1)=N\O,T/C,[17],97 % of control
same,T/C,[18],97 % of control
same,T/C,[19],94 % of control
OC1CCSc2ccc3ccccc3c21 (stereo not given),T/C,[1],114 % of control
same,T/C,[2],104 % of control
same,T/C,"dose: 400.0 mg/kg/injection, schedule: Q01DX009 (ip), vehicle: saline",104 % of control
O=P(NC12CC3CC(CC(C3)C1)C2)(Oc1ccccc1)Oc1ccccc1,T/C,[9],101 % of control
same,T/C,[10],97 % of control
same,T/C,[12],87 % of control
Cc1cccc(Cl)c1NC(=O)Cn1cccc1,T/C,[3],95 % of control
same,T/C,"dose: 50.0 mg/kg/injection, schedule: Q01DX009 (ip), vehicle: Klucel (hydroxypropylcellulose) (HPC)",95 % of control
same,T/C,"dose: 75.0 mg/kg/injection, schedule: Q01DX009 (ip), vehicle: Klucel (hydroxypropylcellulose) (HPC)",94 % of control
same,T/C,[9],100 % of control
same,T/C,[10],93 % of control
